In PubChem BioAssay AID328 (DTP/NCI, 2004):
“And” between values parts separate entries of the source, which are not always exact repeats. Equal entries are not always repeated. Toxic doses and inconclusive results are not listed.

Tested on: BDF1 mice, P388 leukemia ip, median survival T/C
Assay: NCI In Vivo Anticancer Drug Screen. Data for tumor model P388 Leukemia (intraperitoneal) in B6D2F1 (BDF1) mice
Conditions: endpoint: median survival time, higher = longer survival
Outline: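 Read-out is survival of treated animals expressed relative to the vehicle group, as a T/C ratio.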

[1] = dose: 12.5 mg/kg/injection, schedule: Q04DX003 (ip), vehicle: saline with Tween-80

## O=c1[n-]cc(F)c(=O)[nH]1.O=c1[n-]cc(F)c(=O)[nH]1.[NH2-].[NH2-].[Pt+4]
dose: 100.0 mg/kg/injection, schedule: Q01DX009 (ip), vehicle: saline
  T/C: 100 % of control
dose: 100.0 mg/kg/injection, schedule: Q04DX003 (ip), vehicle: saline
  T/C: 120 % of control and 104 % of control
dose: 200.0 mg/kg/injection, schedule: Q01DX009 (ip), vehicle: saline
  T/C: 120 % of control
dose: 200.0 mg/kg/injection, schedule: Q04DX003 (ip), vehicle: saline
  T/C: 113 % of control
dose: 400.0 mg/kg/injection, schedule: Q04DX003 (ip), vehicle: saline
  T/C: 100 % of control

## COc1ccc(NC(=O)N(CCCl)N=O)cc1OC
dose: 0.29 mg/kg/injection, schedule: Q04DX003 (ip), vehicle: saline with Tween-80
  T/C: 107 % of control
dose: 0.44 mg/kg/injection, schedule: Q04DX003 (ip), vehicle: saline with Tween-80
  T/C: 110 % of control
dose: 0.66 mg/kg/injection, schedule: Q04DX003 (ip), vehicle: saline with Tween-80
  T/C: 122 % of control
dose: 0.79 mg/kg/injection, schedule: Q01DX009 (ip), vehicle: saline with Tween-80
  T/C: 174 % of control
dose: 1.19 mg/kg/injection, schedule: Q01DX009 (ip), vehicle: saline with Tween-80
  T/C: 185 % of control
dose: 1.78 mg/kg/injection, schedule: Q01DX009 (ip), vehicle: saline with Tween-80
  T/C: 186 % of control
dose: 2.2 mg/kg/injection, schedule: Q04DX003 (ip), vehicle: saline with Tween-80
  T/C: 172 % of control
dose: 2.66 mg/kg/injection, schedule: Q01DX009 (ip), vehicle: saline with Tween-80
  T/C: 161 % of control and 194 % of control
dose: 3.3 mg/kg/injection, schedule: Q04DX003 (ip), vehicle: saline with Tween-80
  T/C: 190 % of control
dose: 4.0 mg/kg/injection, schedule: Q01DX009 (ip), vehicle: saline with Tween-80
  T/C: 169 % of control
dose: 5.0 mg/kg/injection, schedule: Q04DX003 (ip), vehicle: saline with Tween-80
  T/C: 186 % of control
dose: 5.5 mg/kg/injection, schedule: Q04DX003 (ip), vehicle: saline with Tween-80
  T/C: 218 % of control
dose: 6.0 mg/kg/injection, schedule: Q01DX009 (ip), vehicle: saline with Tween-80
  T/C: 169 % of control
dose: 7.5 mg/kg/injection, schedule: Q04DX003 (ip), vehicle: saline with Tween-80
  T/C: 209 % of control
dose: 8.3 mg/kg/injection, schedule: Q04DX003 (ip), vehicle: saline with Tween-80
  T/C: 209 % of control
dose: 9.0 mg/kg/injection, schedule: Q01DX009 (ip), vehicle: saline with Tween-80
  T/C: 260 % of control
[1]
  T/C: 236 % of control
dose: 18.7 mg/kg/injection, schedule: Q04DX003 (ip), vehicle: saline with Tween-80
  T/C: 281 % of control

## C=C1C(=O)C2(C)OC2(C)C1C(=O)O (stereo not given)
dose: 1.25 mg/kg/injection, schedule: Q01DX009 (ip), vehicle: Klucel (hydroxypropylcellulose) (HPC)
  T/C: 98 % of control
dose: 2.5 mg/kg/injection, schedule: Q01DX009 (ip), vehicle: Klucel (hydroxypropylcellulose) (HPC)
  T/C: 114 % of control
dose: 5.0 mg/kg/injection, schedule: Q01DX009 (ip), vehicle: Klucel (hydroxypropylcellulose) (HPC)
  T/C: 120 % of control
dose: 10.0 mg/kg/injection, schedule: Q01DX009 (ip), vehicle: Klucel (hydroxypropylcellulose) (HPC)
  T/C: 109 % of control

## COc1cc(C=O)cc(I)c1O
dose: 12.5 mg/kg/injection, schedule: Q01DX009 (ip), vehicle: saline sonified
  T/C: 105 % of control
[1]
  T/C: 86 % of control
dose: 25.0 mg/kg/injection, schedule: Q01DX009 (ip), vehicle: saline sonified
  T/C: 94 % of control
dose: 25.0 mg/kg/injection, schedule: Q04DX003 (ip), vehicle: saline with Tween-80
  T/C: 90 % of control
dose: 50.0 mg/kg/injection, schedule: Q01DX009 (ip), vehicle: saline sonified
  T/C: 100 % of control
dose: 50.0 mg/kg/injection, schedule: Q04DX003 (ip), vehicle: saline with Tween-80
  T/C: 100 % of control

## Nc1nccnc1C(=O)O
dose: 12.5 mg/kg/injection, schedule: Q01DX009 (ip), vehicle: water
  T/C: 102 % of control
dose: 25.0 mg/kg/injection, schedule: Q01DX009 (ip), vehicle: water
  T/C: 109 % of control
dose: 50.0 mg/kg/injection, schedule: Q01DX009 (ip), vehicle: water
  T/C: 117 % of control
dose: 100.0 mg/kg/injection, schedule: Q01DX009 (ip), vehicle: water
  T/C: 105 % of control
dose: 200.0 mg/kg/injection, schedule: Q04DX003 (ip), vehicle: water
  T/C: 101 % of control
dose: 300.0 mg/kg/injection, schedule: Q04DX003 (ip), vehicle: water
  T/C: 110 % of control
dose: 400.0 mg/kg/injection, schedule: Q01DX009 (ip), vehicle: water
  T/C: 109 % of control
dose: 400.0 mg/kg/injection, schedule: Q04DX003 (ip), vehicle: water
  T/C: 105 % of control
dose: 600.0 mg/kg/injection, schedule: Q04DX003 (ip), vehicle: water
  T/C: 100 % of control

## CN=C(c1ccc(NC(=O)c2ccc(C(=O)Nc3ccc(C(=NC)N(C)C)cc3)cc2)cc1)N(C)C
dose: 2.0 mg/kg/injection, schedule: Q01DX010 (ip), vehicle: water
  T/C: 110 % of control
dose: 4.0 mg/kg/injection, schedule: Q01DX010 (ip), vehicle: water
  T/C: 115 % of control

## CN=C(NC(C)C)c1ccc(NC(=O)c2ccc(C(=O)Nc3ccc(C(=NC)NC(C)C)cc3)cc2)cc1
dose: 16.0 mg/kg/injection, schedule: Q04DX003 (ip), vehicle: saline with Tween-80
  T/C: 118 % of control
dose: 42.2 mg/kg/injection, schedule: Q04DX003 (ip), vehicle: saline with Tween-80
  T/C: 150 % of control
dose: 64.0 mg/kg/injection, schedule: Q04DX003 (ip), vehicle: saline with Tween-80
  T/C: 150 % of control
dose: 96.0 mg/kg/injection, schedule: Q04DX003 (ip), vehicle: saline with Tween-80
  T/C: 150 % of control

## CC1(c2cccc([N+](=O)[O-])c2)OCCO1
dose: 100.0 mg/kg/injection, schedule: Q01DX009 (ip), vehicle: other
  T/C: 109 % of control
dose: 100.0 mg/kg/injection, schedule: Q04DX003 (ip), vehicle: other
  T/C: 100 % of control
dose: 200.0 mg/kg/injection, schedule: Q01DX009 (ip), vehicle: other
  T/C: 100 % of control
dose: 200.0 mg/kg/injection, schedule: Q04DX003 (ip), vehicle: other
  T/C: 95 % of control
dose: 400.0 mg/kg/injection, schedule: Q01DX009 (ip), vehicle: other
  T/C: 100 % of control
dose: 400.0 mg/kg/injection, schedule: Q04DX003 (ip), vehicle: other
  T/C: 91 % of control

## COc1cccc2c1C(=O)c1c(O)c3c(c(O)c1C2=O)C[C@@](O)(/C(C)=N/NC(=O)c1ccccc1)C[C@@H]3OC1CC(N)C(O)C(C)O1 (stereo not given in full)
dose: 0.38 mg/kg/injection, schedule: Q01DX009 (ip), vehicle: water
  T/C: 166 % of control
dose: 0.75 mg/kg/injection, schedule: Q01DX009 (ip), vehicle: water
  T/C: 166 % of control
dose: 1.5 mg/kg/injection, schedule: Q01DX009 (ip), vehicle: saline
  T/C: 216 % of control
dose: 1.5 mg/kg/injection, schedule: Q01DX009 (ip), vehicle: water
  T/C: 123 % of control and 217 % of control
dose: 3.0 mg/kg/injection, schedule: Q01DX009 (ip), vehicle: saline
  T/C: 250 % of control
dose: 3.0 mg/kg/injection, schedule: Q01DX009 (ip), vehicle: water
  T/C: 245 % of control and 110 % of control
dose: 3.0 mg/kg/injection, schedule: Q04DX003 (ip), vehicle: saline
  T/C: 226 % of control
dose: 6.0 mg/kg/injection, schedule: Q01DX009 (ip), vehicle: saline
  T/C: 166 % of control
dose: 6.0 mg/kg/injection, schedule: Q01DX009 (ip), vehicle: water
  T/C: 164 % of control
dose: 6.0 mg/kg/injection, schedule: Q04DX003 (ip), vehicle: saline
  T/C: 208 % of control
dose: 6.5 mg/kg/injection, schedule: Q04DX003 (ip), vehicle: water
  T/C: 171 % of control
dose: 10.8 mg/kg/injection, schedule: Q04DX003 (ip), vehicle: water
  T/C: 165 % of control
dose: 12.0 mg/kg/injection, schedule: Q01DX009 (ip), vehicle: saline
  T/C: 95 % of control
dose: 12.0 mg/kg/injection, schedule: Q04DX003 (ip), vehicle: saline
  T/C: 195 % of control
dose: 18.0 mg/kg/injection, schedule: Q04DX003 (ip), vehicle: water
  T/C: 103 % of control

## CCCCCCCCOc1cc(OC(C)=O)c2c(ccc3ccccc32)c1
dose: 100.0 mg/kg/injection, schedule: Q04DX003 (ip), vehicle: saline with Tween-80
  T/C: 88 % of control
dose: 200.0 mg/kg/injection, schedule: Q04DX003 (ip), vehicle: saline with Tween-80
  T/C: 87 % of control
dose: 400.0 mg/kg/injection, schedule: Q04DX003 (ip), vehicle: saline with Tween-80
  T/C: 88 % of control

## COc1ccc(CCN2CSC(=S)N(CCc3ccc(OC)c(OC)c3)C2)cc1OC
dose: 100.0 mg/kg/injection, schedule: Q01DX009 (ip), vehicle: Klucel (hydroxypropylcellulose) (HPC)
  T/C: 100 % of control
dose: 200.0 mg/kg/injection, schedule: Q01DX009 (ip), vehicle: Klucel (hydroxypropylcellulose) (HPC)
  T/C: 110 % of control
dose: 400.0 mg/kg/injection, schedule: Q01DX009 (ip), vehicle: Klucel (hydroxypropylcellulose) (HPC)
  T/C: 94 % of control
